Results taken from patent US10407445B2, “Hepatitis C virus inhibitors” (ENANTA PHARMACEUTICALS, INC., priority 2013, dated 2019).
pEC50: −log10 of the molar value.

What was measured:
GT4a-ED43 replicon = assay: Stable replicon assay, comparison to daclatasvir, GT4a-ED43; assay type: cell-based; details: Hepatitis C virus
Excerpt: (§1) The GT3a-S52 replicon plasmid pSGRlucneo-GT3a-S52-HDVR-(ISH) was synthesized by Genscript. This plasmid encodes a GT3a (strain S52, accession GU814264) bicistronic subgenomic replicon encoding the hRluc-Neo reporter gene in the first cistron and NS3-NS5B, driven by an encephalomyocarditis virus (EMCV) internal ribosome entry site (IRES), in the second cistron. The hepatitis delta ribozyme (HDVR) was included after the HCV 3′ NTR followed by a unique SpeI restriction site for linearization. This replicon encodes three cell culture adaptive mutations, P1226S (NS3), D1437H (NS3), and S2210I (NS5A), as described previously (Saeed et al 2012 Antimicrob. Agents Chemother. 54: 1878-1887). The GT4a-ED43 replicon plasmid pSGRlucneo-GT4a-ED43-HDVR-(KG) was synthesized by Genscript. […]
(§2) Stable HCV replicon cell lines were grown in complete media (Dulbecco's modified Eagle medium [DMEM], 2 mM L-glutamine, 0.1 mM essential amino acids, 1 mM sodium pyruvate, 10% fetal bovine serum) with the addition 500 μg/ml […] (G418). […] For stable and transient replicon assays, luciferase activity of compound-treated cells was measured relative to DMSO-treated cells after 72 h incubation using RENILLA-GLO™ Luciferase Assay (Promega). […]

GT3a-S52 replicon = assay: Stable replicon assay, comparison to daclatasvir, GT3a-S52; assay type: cell-based; details: Hepatitis C virus
Excerpt: as §1, §2

## COC(=O)N[C@H](C(=O)N1CCC[C@H]1c1nc(-c2ccc(-c3ccc(-c4c[nH]c([C@@H]5CCCN5C(=O)[C@@H](NC(=O)OC)C(C)C)n4)cc3)cc2)c[nH]1)C(C)C [Daclatasvir, reference compound]
GT4a-ED43 replicon
  pEC50: 10.60
GT3a-S52 replicon
  pEC50: 8.92

## COC(=O)N[C@H](C(=O)N1C[C@]2(CCCOC2)C[C@H]1c1ncc(-c2ccc(-c3ccc4c(ccc5nc([C@@H]6C[C@@H]7CCC[C@@H]7N6C(=O)[C@@H](NC(=O)OC)C(C)C)[nH]c54)c3)cc2)[nH]1)C(C)C [Compound 16]
GT4a-ED43 replicon
  pEC50: 10.96
GT3a-S52 replicon
  pEC50: 8.33
